Measurements from the NIST ThermoML archive (doi:10.1021/je3004645).
± gives the expanded uncertainty stated by the source.

Conditions: for electrical conductivity / mass density / viscosity: 101.33 kPa, Liquid; for electrical conductivity: Alternating current cell with electrodes; for mass density: Pycnometric method; for viscosity: Capillary tube (Ostwald / Ubbelohde) method; for Triple point temperature / Glass transition temperature: DTA

CCCC[n+]1ccc(C)cc1.O=S(=O)([N-]S(=O)(=O)C(F)(F)F)C(F)(F)F
Conditions | Glass transition temperature [°C] | Triple point temperature [K] | electrical conductivity [S/m] | mass density [kg/m3] | viscosity [mPa·s]
– | -78 ± 3 | – | – | – | –
278.15 K | – | – | 0.124 ± 0.003 | – | –
283.15 K | – | – | 0.166 ± 0.003 | 1432.8 ± 0.8 | –
288.15 K | – | – | 0.215 ± 0.004 | 1428.4 ± 0.8 | –
293.15 K | – | – | 0.273 ± 0.006 | 1423.4 ± 0.8 | –
298.15 K | – | – | 0.341 ± 0.007 | 1418.7 ± 0.8 | 55.14 ± 1.2
303.15 K | – | – | 0.419 ± 0.009 | 1414 ± 0.8 | 44.2 ± 0.95
308.15 K | – | – | 0.509 ± 0.01 | 1409.3 ± 0.8 | 35.85 ± 0.77
313.15 K | – | – | 0.6 ± 0.012 | 1404.7 ± 0.8 | 29.61 ± 0.63
318.15 K | – | – | 0.702 ± 0.014 | 1400.2 ± 0.8 | 24.77 ± 0.53
323.15 K | – | – | 0.817 ± 0.017 | 1395.8 ± 0.9 | 20.85 ± 0.44
328.15 K | – | – | 0.941 ± 0.019 | 1391.3 ± 0.9 | 17.86 ± 0.38
333.15 K | – | – | 1.07 ± 0.022 | 1386.9 ± 0.9 | 15.37 ± 0.33
338.15 K | – | – | 1.21 ± 0.024 | 1382.5 ± 0.9 | 13.42 ± 0.28
343.15 K | – | – | – | – | 11.65 ± 0.25
348.15 K | – | – | – | – | 10.15 ± 0.22
353.15 K | – | – | – | – | 8.89 ± 0.19
358.15 K | – | – | – | – | 7.94 ± 0.17
Crystal 1 | – | 292.4 ± 0.5 | – | – | –
Crystal 2 | – | 242.2 ± 0.5 | – | – | –
Crystal 3 | – | 235.8 ± 0.5 | – | – | –

CC[n+]1ccc(C)cc1.O=S(=O)([N-]S(=O)(=O)C(F)(F)F)C(F)(F)F
Conditions | Glass transition temperature [°C] | Triple point temperature [K] | electrical conductivity [S/m] | mass density [kg/m3] | viscosity [mPa·s]
– | -74.5 ± 3 | – | – | – | –
283.15 K | – | – | 0.424 ± 0.009 | 1505.2 ± 0.9 | –
288.15 K | – | – | 0.525 ± 0.011 | 1501 ± 0.9 | –
293.15 K | – | – | 0.638 ± 0.013 | 1496.1 ± 0.9 | –
298.15 K | – | – | 0.763 ± 0.015 | 1492 ± 0.9 | 32.75 ± 0.69
303.15 K | – | – | 0.901 ± 0.018 | 1487.7 ± 0.9 | 27.31 ± 0.58
308.15 K | – | – | 1.05 ± 0.021 | 1483 ± 0.9 | 23.1 ± 0.49
313.15 K | – | – | 1.21 ± 0.024 | 1478.3 ± 0.9 | 19.69 ± 0.42
318.15 K | – | – | 1.38 ± 0.028 | 1473.4 ± 0.9 | 16.95 ± 0.36
323.15 K | – | – | 1.55 ± 0.031 | 1468.8 ± 0.9 | 14.66 ± 0.31
328.15 K | – | – | 1.75 ± 0.035 | 1464.4 ± 0.9 | 12.85 ± 0.27
333.15 K | – | – | 1.96 ± 0.039 | 1459.9 ± 0.9 | 11.34 ± 0.24
338.15 K | – | – | 2.17 ± 0.044 | 1455.1 ± 0.9 | 10.1 ± 0.21
343.15 K | – | – | – | – | 9.07 ± 0.19
348.15 K | – | – | – | – | 8.19 ± 0.17
353.15 K | – | – | – | – | 7.43 ± 0.16
358.15 K | – | – | – | – | 6.76 ± 0.14
363.15 K | – | – | – | – | 6.19 ± 0.13
Crystal 1 | – | 291 ± 0.5 | – | – | –
Crystal 2 | – | 278.2 ± 0.5 | – | – | –
